Results published in PubChem BioAssay AID1996.
In brackets after ≈: the same amount, converted by molar mass.

Conditions: buffer; pH 7.4; 200.0 µM

Compound	solubility kinetic
COc1ccccc1C(=O)N1CCN(C(=O)Cc2ccccc2)CC1	43.2 µg/mL (≈ 128 µM)
Cc1cc(NC(=O)CCc2ccc(-c3ccccc3)o2)no1	2.4 µg/mL (≈ 8.1 µM)
COC(=O)/C=C1\SC(N)=NC1=O	> 27.9 µg/mL
Cc1ccc(/C=C/C(=O)NN2CCN(C)CC2)cc1	> 38.9 µg/mL
Cc1ccc2nc(-c3ccccc3)cc(C(=O)N3CC(C)OC(C)C3)c2c1 (stereo not drawn)	49.1 µg/mL (≈ 136 µM)
CSc1ccc(/C=C/C(=O)N2CCN(c3ccccn3)CC2)cc1	2.3 µg/mL (≈ 6.78 µM)
COc1ccc(NC(=O)CNc2ccc(C#N)cc2)cc1	> 42.2 µg/mL
CN(C)/C=C/C(=O)c1cccc(Oc2ncccn2)c1	> 40.4 µg/mL
O=C(Nc1ccc2nccnc2c1)Nc1ccccc1Cl	1 µg/mL (≈ 3.35 µM)
COc1ccccc1NC(=O)Nc1ccccc1C#N	24.8 µg/mL (≈ 92.8 µM)
O=C(NCc1ccccn1)Nc1ccccc1	> 34.1 µg/mL
CCOc1ccc(S(=O)(=O)N2CC(=O)Nc3ccccc32)cc1	10.7 µg/mL (≈ 32.2 µM)
NC(=O)/C(=C/c1cccnc1)NC(=O)c1ccccc1	> 40.1 µg/mL
COc1ccc(CC(=O)NC2CCCc3ccccc32)cc1 (stereo not drawn)	15.8 µg/mL (≈ 53.5 µM)
CSc1cccc(NS(=O)(=O)c2ccc(C(C)=O)cc2)c1	41.1 µg/mL (≈ 128 µM)
Cc1cc(=O)[nH]c(-c2cccs2)n1	> 28.8 µg/mL
Cc1ccc(OCC(=O)NCCNC(=O)c2cnccn2)cc1	40.9 µg/mL (≈ 130 µM)
O=C(c1ccc(Cl)cc1)N(c1ccccn1)C1CCCCC1	41.5 µg/mL (≈ 132 µM)
Br.Cc1ccnc(Nc2nc(-c3sc(C)nc3C)cs2)c1	3.6 µg/mL
CC1CCc2cc(F)ccc2N1C(=O)CCl (stereo not drawn)	> 36.3 µg/mL
C/C(=C\c1ccccc1)CN1CCN(C)CC1	18.1 µg/mL (≈ 78.6 µM)
Cc1cccc(CCNC(=O)c2oc3c(C)c(C)ccc3c2C)n1	1.9 µg/mL (≈ 5.89 µM)
Cc1ccc(C(CC(=O)N2CCCCC2)c2ccccc2)c(O)c1C (stereo not drawn)	3.8 µg/mL (≈ 11.3 µM)
COc1ccc(S(=O)(=O)N2CCCCC2)cc1NS(=O)(=O)c1ccc(CNC(C)=O)cc1	62.5 µg/mL (≈ 130 µM)
CCOc1ccc(Cl)cc1CNCCCSc1ncccn1	43 µg/mL (≈ 127 µM)

Compound	solubility kinetic
Cc1cc(SCc2ccc(Br)cc2)nc(=O)[nH]1	6 µg/mL (≈ 19.3 µM)
COc1ccc2c(c1)[nH]c1c(N3CCSCC3)ncnc12	11.5 µg/mL (≈ 38.3 µM)
COc1ccc(CNC(=O)Cc2cccs2)cc1	26.9 µg/mL (≈ 103 µM)
CN(C)c1cccc(NC(=O)c2ccco2)c1	> 34.5 µg/mL
Cc1ccc(N/C=C2\CCCCC2=O)nc1	31.6 µg/mL (≈ 146 µM)
COCCNc1nc(SC)nc2sc3c(c12)CCN(C)C3	46.5 µg/mL (≈ 143 µM)
CCC(=O)Nc1ccc2c(c1)Cc1cc(NC(=O)CC)ccc1-2	0.5 µg/mL (≈ 1.62 µM)
COC(=O)CSc1ncnc2c(C)csc12	29.9 µg/mL (≈ 118 µM)
N#C/C(=C(/O)C(Cl)(Cl)Cl)c1nc2ccccc2[nH]1	12.1 µg/mL (≈ 40 µM)
CC(=O)Nc1ccc(SCC(=O)Nc2sccc2C#N)cc1	26.5 µg/mL (≈ 80 µM)
CCOc1ccc(C(=O)OC(C)CN2CCN(C)CC2)cc1.Cl (stereo not drawn)	> 51.4 µg/mL
Cc1cc(C(=O)Nc2cccc3ccccc23)co1	33 µg/mL (≈ 131 µM)
Cc1ccc(OCC(O)CN2CCc3ccccc3C2)c(C)c1.Cl (stereo not drawn)	30.7 µg/mL
NC(=O)c1ccccc1NCC(=O)c1ccc(F)cc1	> 40.8 µg/mL
COCCOc1ccc(C(F)(F)F)cc1N	31.9 µg/mL (≈ 136 µM)
COC(Cn1cc(C)c(=O)[nH]c1=O)OC	30.3 µg/mL (≈ 141 µM)
CCC(C)c1ccc(NC(=O)Nc2cnccn2)cc1 (stereo not drawn)	1.3 µg/mL (≈ 4.81 µM)
C=CCNC(=O)c1ccc(NC(=O)C2=CSCCO2)cc1	> 45.7 µg/mL
O=C(CC1SCCNC1=O)Nc1cccc([N+](=O)[O-])c1 (stereo not drawn)	> 44.3 µg/mL
Cc1cc(SCc2cccc(Cl)c2)nc(=O)[nH]1	39.9 µg/mL (≈ 150 µM)
Cc1cc[n+](CC2OCc3ccccc3CO2)cc1.[Br-]	> 50.4 µg/mL
CC1=CC(C)(C)N(C(=O)Nc2ccccc2)c2ccccc21	7.8 µg/mL (≈ 26.7 µM)
Cc1c(NC(=O)C(c2ccccc2)c2ccccc2)cccc1C(=O)O	> 51.8 µg/mL
O=C(NC12CC3CC(CC(C3)C1)C2)c1ccc(N2CCNCC2)c([N+](=O)[O-])c1	40.8 µg/mL (≈ 106 µM)
CC1(C(=O)N2CCOCC2)CCCCC1	26.3 µg/mL (≈ 124 µM)

Compound	solubility kinetic
COc1ccc(Cl)cc1NC(=O)COC(=O)c1ccc(Br)o1	2.6 µg/mL (≈ 6.69 µM)
Br.CN1CCN(C(=O)Cc2ccccc2)CC1	> 44.9 µg/mL
Cc1cc(C)c(C(=O)N2CCC3(CC2)OCCO3)c(C)c1	> 43.4 µg/mL
O=C(C1COc2ccccc2O1)N1CCCCC1 (stereo not drawn)	> 37.1 µg/mL
O=C(NCCc1ccc(F)cc1)Nc1ccccc1	6.1 µg/mL (≈ 23.6 µM)
O=C(Nc1ccccc1)N1CCN(CCc2ccccc2)CC1	41.6 µg/mL (≈ 134 µM)
CCCCn1c(N)c(N(CC)C(=O)COc2ccc(C#N)cc2)c(=O)[nH]c1=O	15.6 µg/mL (≈ 40.5 µM)
CCC(C)NC(=O)c1ccc2nc(Cc3ccc(OC)cc3)oc2c1 (stereo not drawn)	4.7 µg/mL (≈ 13.9 µM)
Cc1sc(NC(=O)CCC(=O)O)c(C#N)c1C	> 37.8 µg/mL
Cc1c(Cl)cccc1NC(=O)CNC(=O)c1ccc2c(c1)OCCO2	18 µg/mL (≈ 49.9 µM)
CCOC(=O)c1sc2ncc([N+](=O)[O-])cc2c1N	3.8 µg/mL (≈ 14.2 µM)
O=C(CCNC(=O)c1ccccc1)Nc1ccc(S(=O)(=O)Nc2ncccn2)cc1	> 63.8 µg/mL
Cc1c(C=Nc2ccc(S(=O)(=O)N(C)C)cc2)c(O)[nH]c(=O)c1C#N	24.7 µg/mL (≈ 68.5 µM)
NC(=O)c1cc([N+](=O)[O-])ccc1NCCc1ccccc1	< 0.2 µg/mL
O=C(CN1C(=O)c2ccccc2S1(=O)=O)c1ccc(F)c(F)c1	48.2 µg/mL (≈ 143 µM)
Cc1c(Cl)cccc1NS(=O)(=O)c1cccc2nsnc12	> 51 µg/mL
Cc1ccc2nsnc2c1S(=O)(=O)N1CCN(C)CC1	45.5 µg/mL (≈ 146 µM)
COc1ccc(NC(=O)CS(=O)c2ccc(F)cc2)cc1 (stereo not drawn)	> 46.1 µg/mL
O=c1cc([O-])n(Cc2ccc(F)cc2)c(=O)[nH]1.[NH4+]	> 38 µg/mL
O=C(Cc1ccccc1Cl)N1CCOCC1	> 36 µg/mL
Cc1ccc(C)c(C(=O)CN2Cc3ccccc3C2=O)c1	6.1 µg/mL (≈ 21.8 µM)
Cl.c1ccc([C@H]2CN3CCSC3=N2)cc1	> 36.1 µg/mL
Cc1ccc2c(c1)N=C(c1ccccc1)CC(C(Cl)Cl)=N2	7.1 µg/mL (≈ 22.4 µM)
CC(C)[C@H](NS(=O)(=O)c1ccccc1)C(=O)OCC(=O)NC(=O)NC1CCCCC1	> 65.9 µg/mL
CCOC(=O)C1CCCN(C(=O)c2ccccc2NS(=O)(=O)c2ccc(F)cc2)C1 (stereo not drawn)	> 65.2 µg/mL

Compound	solubility kinetic
Cc1ccn2cc(-c3ccc(O)c(O)c3)nc2c1.Cl	17.8 µg/mL
O=C(COc1ccc2ccccc2c1Br)N1CCCC1	45.4 µg/mL (≈ 136 µM)
O=C(Nc1ccccc1-c1ccccc1)c1ccccc1[N+](=O)[O-]	16.8 µg/mL (≈ 52.8 µM)
Cc1cc(Cl)nc(-c2ccccc2O)n1	< 0.2 µg/mL
CCC1=NC(c2ccc(Br)cc2)N(O)C1(C)C (stereo not drawn)	41 µg/mL (≈ 138 µM)
O=C(O)/C=C/C(=O)Nc1ccc(O)cc1	> 31.1 µg/mL
CN1CC(C#N)C2(O)c3ccccc3CCC2C1 (stereo not drawn)	> 36.3 µg/mL
CCOC(=O)c1ccc(NC(=S)NC(=O)C2CCCC2)cc1	< 0.3 µg/mL
Cn1c(N)c(C(=O)COC(=O)CCC2CCCC2)c(=O)n(C)c1=O	> 50.6 µg/mL
CCOc1nc(C)cc(C)c1S(=O)(=O)c1cccc(Cl)c1	6.2 µg/mL (≈ 19 µM)
COc1ccc(S(=O)(=O)N(C)C(C)CCc2ccco2)cc1 (stereo not drawn)	35 µg/mL (≈ 108 µM)
Cc1occc1C(=O)Nc1cccc(S(=O)(=O)N2CCOCC2)c1	52.2 µg/mL (≈ 149 µM)
Cn1c(NC(=O)c2ccc(F)cc2)nc2ccccc21	4.8 µg/mL (≈ 17.8 µM)
O=C(NC1CCCC1)c1cc(-c2ccc(Cl)cc2Cl)on1	1 µg/mL (≈ 3.08 µM)
CN1CCC(NC(=O)c2ccncc2)CC1	29.4 µg/mL (≈ 134 µM)
O=c1[nH]c2ccc(S(=O)(=O)Nc3ccc(Cl)cc3)cc2o1	> 48.7 µg/mL
Nc1nc(NC(=O)c2ccccc2Cl)nn1-c1ccccc1	> 47.1 µg/mL
Cc1ccc(N(CCO)C(=S)Nc2ccccc2)cc1	> 43 µg/mL
Cc1ccccc1NS(=O)(=O)c1cccc2nonc12	> 43.4 µg/mL
COc1cccc(NC2=NCCCCC2)c1	> 32.7 µg/mL
Cc1ccc(Cl)cc1N1CCN(C(=S)NCc2ccco2)CC1	1 µg/mL (≈ 2.86 µM)
CC(=O)C1=C(O)C(=O)N(Cc2ccccc2)C1c1ccc(F)cc1 (stereo not drawn)	> 48.8 µg/mL
CCOc1cc(N2CCOCC2)c(OCC)cc1NC(=O)c1ccc(OC)c(S(=O)(=O)N2CCOCC2)c1	45.2 µg/mL (≈ 82.2 µM)
O=C(O)c1ccc(N2C(=O)CCCC2=O)cc1	25.9 µg/mL (≈ 111 µM)
O=c1c2ccccc2nc(/C=C/c2ccc(Cl)cc2)n1CCO	1.3 µg/mL (≈ 3.98 µM)

Compound	solubility kinetic
COC(=O)c1nn(-c2ccc(OC)cc2)ccc1=O	> 39 µg/mL
O=S(=O)(Cc1ccccc1Cl)NCCc1ccc(F)cc1	> 49.2 µg/mL
O=C(c1ccccc1)c1cnc[nH]1	25.6 µg/mL (≈ 149 µM)
O=C(Cc1ccc(F)cc1)NCCc1cnc[nH]1	> 37.1 µg/mL
CC(C)(C)c1ccc(C(=O)O/N=C(\N)c2ccccn2)cc1	2.4 µg/mL (≈ 8.07 µM)
CC1CCc2c(sc(NC(=O)C3=COCCO3)c2C(N)=O)C1 (stereo not drawn)	6.3 µg/mL (≈ 19.5 µM)
Cc1csc2c(=O)sc(NC(=O)c3ccc(F)cc3Cl)nc12	< 0.4 µg/mL
O=C(COC(=O)c1ccc(Cl)c(S(=O)(=O)N2CCCC2)c1)NCc1ccccc1	26.1 µg/mL (≈ 59.7 µM)
N#Cc1ccccc1NC(=O)CSc1ccc([N+](=O)[O-])cn1	0.7 µg/mL (≈ 2.23 µM)
CCOc1ccc(NC(=S)NCc2nc3ccccc3[nH]2)cc1	46.6 µg/mL (≈ 143 µM)
S=C(NCc1ccccc1)N1CCN(C2CCCCC2)CC1	> 47.6 µg/mL
Clc1ccc(CN2CCN(c3ccccc3)CC2)cn1	21 µg/mL (≈ 73 µM)
O=[N+]([O-])c1cccc(S(=O)(=O)N2CCN(c3ccccn3)CC2)c1	1.3 µg/mL (≈ 3.73 µM)
O=C(NCc1ccccc1Cl)c1ccc2c(c1)OCO2	> 43.5 µg/mL
O=C(Nc1nncs1)C1CC(=O)N(C2CCCC2)C1 (stereo not drawn)	> 42.1 µg/mL
O=S1(=O)CCC(=Nc2ccc(Cl)cc2)c2ccsc21	20.3 µg/mL (≈ 65.1 µM)
CC1CCC(NC(=O)COC(=O)c2ccco2)CC1 (stereo not drawn)	> 39.8 µg/mL
N#C/C(=C\c1ccc[nH]1)C(=O)N1CCCCC1	> 34.4 µg/mL
N#CCNC(=O)C1c2ccccc2Oc2ccccc21	4.1 µg/mL (≈ 15.5 µM)
CCOc1c(Cl)cc(CNCc2ccncc2)cc1OC.Cl	46.1 µg/mL
COc1ccc(CC(=O)Nc2nc(C(C)(C)C)cs2)cc1	2.1 µg/mL (≈ 6.9 µM)
O=C(NCc1cccc(F)c1)C1CCC(=O)N(C2CC2)C1 (stereo not drawn)	> 43.6 µg/mL
Cc1ccccc1N(Cc1cc(=O)[nH]c2ccccc12)C(=O)C(C)C	36 µg/mL (≈ 108 µM)
